Test results: publication PMC5374206, “Anti-bacterial and Anti-biofilm Evaluation of Thiazolopyrimidinone Derivatives Targeting the Histidine Kinase YycG Protein of Staphylococcus epidermidis” (Frontiers in Microbiology, 2017)
Converted amounts (≈) assume the structure as drawn.

Columns and labels:
[1] = system: Enterococcus faecalis OG1RF; assay: Standard tube-dilution assay against Enterococcus faecalis; format: cell-based; settings: result in words
ArlS' protein = target: T1, ArlS' protein (Staphylococcus epidermidis, UniProt Q5HPC4); assay: Inhibition of ArlS' autophosphorylation (Kinase-Glo Luminescent Kinase Assay); format: biochemical, S. epidermidis; settings: for Inhibition of ArlS’ phosphorylation / Luminescence: 200 μM derivative, 2 μg purified protein, 4 μM ATP; for inhibitory effect on the autophosphorylation of ArlS': highest concentration 200 μM, result in words
T1 construct: made in house
T1 sequence (Q5HPC4 240-456): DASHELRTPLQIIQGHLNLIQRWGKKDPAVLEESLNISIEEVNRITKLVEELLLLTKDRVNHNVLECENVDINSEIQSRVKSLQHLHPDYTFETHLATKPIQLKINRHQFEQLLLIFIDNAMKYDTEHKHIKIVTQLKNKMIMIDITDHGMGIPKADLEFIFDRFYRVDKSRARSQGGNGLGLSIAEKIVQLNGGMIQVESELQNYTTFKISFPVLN

[2] = Erythrocyte hemolysis assay; format: cell-based; settings: human, erythrocytes (5% suspension), 37°C; for hemolysis at 1 h, 200 µM: at 200 μM; for hemolysis at 1 h: at MIC (against S epidermidis ATCC 35984)
Experimental: Hemolytic activities of the derivatives were measured on healthy human erythrocytes. A pure suspension of erythrocytes was obtained by washing a blood sample with sterile 0.9% NaCl saline solution. Erythrocytes were resuspended in normal saline to give a 5% solution, then treated with MIC, 4 × MIC or 200 μM of the derivatives for 1 h at 37°C in 96-well microtiter plates. After the incubation and centrifugation at 1,000 g for 10 min, supernatants were transferred to another sterile plate and the absorbance at 570 nm was measured on a spectrophotometric microplate reader. A positive control (100% hemolysis) and a negative control (0% hemolysis) were achieved by incubating with 1% Triton-X 100 and 0.1% DMSO, respectively. Each assay was performed in triplicate and repeated three times.

[3] = system: S. epidermidis ATCC 35984 mature biofilms; assay: Cell viability in mature (24 h) biofilms by CLSM with Live/Dead staining; format: cell-based, Staphylococcus epidermidis; settings: 4 × MIC, 16 h, 24 h mature biofilm; for PI fluorescence quantity (dead cells) / SYTO9 fluorescence quantity (viable cells): Image J
Experimental: The effect of the derivatives on cell viability in mature biofilms (24 h old) was determined using the Live/Dead Bacterial Viability method (Live/Dead BacLight, Molecular Probes, USA). […] The mature biofilms were stained with SYTO 9 and propidium iodide at room temperature for 15 min, following gentle washing of the dishes with normal saline, and were observed under a Leica TCS SP5 CLSM with a 63 × 1.4-NA oil-immersion objective. Further, image analysis was performed using IMARIS 7.0.0 software (Bitplane). The fluorescence quantities of biofilm were determined using Image J software. This assay was performed in triplicate and similar results were obtained.

[4] = system: S. epidermidis ATCC 12228; assay: MIC tube-dilution assay; format: cell-based; settings: Staphylococcus epidermidis, ATCC12228
Experimental: (§1) The MIC assays of the derivatives of compound 5 against S. epidermidis, S. aureus, MRSA and E. coli were performed by using the methods described previously by Wiegand et al. ([2008]). In brief, two-fold serial dilutions of the derivatives were prepared in tubes containing 4 mL MHB medium, yielding final concentrations from 200 to 0.78 μM. Bacterial cultures were grown overnight and adjusted so that the bacterial suspension turbidity was equivalent to a 0.5 McFarland standard (~1 × 10^8 CFU/mL) and further diluted to 1:200 into MHB medium. The contents in the tubes were mixed thoroughly and incubated at 37°C with shaking at 220 rpm for 16–20 h. The MIC endpoint was defined as the lowest concentration at which there was no visible growth in the tubes. The MBC values were assessed by plating 100 μL samples from each negative (no visible bacterial growth) culture tube from the MIC assays onto blank MHB agar plates. After incubation at 37°C for 24 h, the bacterial colonies on the plates were counted. The MBC was the concentration at which a 99.9% reduction of the original inoculum was observed (Pridmore et al., [2011]). In this assay, all the experiments were performed three times.

S. aureus ATCC 49230 = assay: MIC tube-dilution assay; format: cell-based; settings: Staphylococcus aureus, ATCC49230
Experimental: as §1

Cytotoxicity MTT assay = format: cell-based; settings: African green monkey, Vero cells, highest concentration tested 200 μM
Experimental: A Cell Proliferation Kit I (MTT; Roche, Indianapolis, USA) was used to detect the cytotoxicity of the derivatives against Vero cells. Vero cells were added to 96-well microtiter plates at a concentration of 5 × 10^4 cells/well in 100 μL of culture medium. After 24 h, culture medium was replaced by 100 μL serial dilutions of the derivatives (0.78–100 μM) and the cells were incubated for 4 h in an atmosphere of 5% CO2, then 10 μL of the MTT stock solution was added to each well and the plate returned to the 37°C incubator for 4 h. Subsequent to the incubation, the purple formazan salts were dissolved in DMSO, and the absorbance of each well was measured at wavelengths of 595 nm (test) and 655 nm (reference). Cells treated with the solvent (0.1% DMSO) were used as a blank control. The concentration of the derivatives that produced a 50% cytotoxicity effect on Vero cells (CC50) was calculated using Origin v8.0 software (Origin Lab, Northampton, USA).

SMILES	anti-bacterial activity [1]	Inhibition of ArlS’ phosphorylation (ArlS' protein)	inhibitory effect on the autophosphorylation of ArlS' (ArlS' protein)	hemolysis at 1 h, 200 µM [2]	hemolysis at 1 h [2]	PI/Total (reduction of the proportion of viable cells in mature biofilms) [3]	PI fluorescence quantity (dead cells) [3]	SYTO9 fluorescence quantity (viable cells) [3]	MIC [4]	MIC (S. aureus ATCC 49230)	CC50 at 4 h (Cytotoxicity MTT assay)	Luminescence (ArlS' protein)
CCOC(=O)C1=C(c2ccccc2)N=c2sc(=Cc3ccc(-c4cccc(C(=O)O)c4)o3)c(=O)n2C1c1ccc(F)cc1 (centres unmarked) [H5-32, 2-[5-(3-carboxy-phenyl)-furan-2-ylmethylene]-5-(4-fluoro-phenyl)-3-oxo-7-phenyl-2,3-dihydro-5H-thiazolo[3,2-a]pyrimidine-6-carboxylic acid ethyl ester]	displayed anti-bacterial activities	-5.9%	None of them showed an inhibitory effect	0.24 ± 0.05%	0.15 ± 0.05%	66.50%	40.338 ± 5.03	20.321 ± 4.66	6.25 µM (≈ 3.72 µg/mL)	3.13 µM (≈ 1.86 µg/mL)	> 200 µM	–
O=C(O)c1cccc(-c2ccc(C=c3sc4n(c3=O)C(c3ccc(F)cc3)C=C(c3ccccc3)N=4)o2)c1 (centres unmarked) [H5-33, 3-{5-[5-(4-fluoro-phenyl)-3-oxo-7-phenyl-5H-thiazolo [3,2-a]pyrimidin-2-ylidenemethyl]-furan-2-yl}-benzoic acid]	displayed anti-bacterial activities	-5.1%	None of them showed an inhibitory effect	0.32 ± 0.05%	0.15 ± 0.06%	88.4%	73.684 ± 5.56	9.669 ± 3.64	3.13 µM (≈ 1.64 µg/mL)	3.13 µM (≈ 1.64 µg/mL)	> 200 µM	17786 + 382 RLU
CCOC(=O)C1=C(c2ccccc2)N=c2sc(=Cc3ccc(-c4ccc(C(=O)O)cc4)o3)c(=O)n2C1c1ccc(Cl)cc1 (centres unmarked) [H5-34, 2-[5-(4-carboxy-phenyl)-furan-2-ylmethylene]-5-(4-chloro-phenyl)-3-oxo-7-phenyl-2,3-dihydro-5H-thiazolo[3,2-a]pyrimidine-6-carboxylic acid ethyl ester]	displayed anti-bacterial activities	-5.6%	None of them showed an inhibitory effect	0.19 ± 0.01%	0.22 ± 0.57%	38.80%	39.578 ± 4.74	62.165 ± 6.71	3.13 µM (≈ 1.91 µg/mL)	3.13 µM (≈ 1.91 µg/mL)	> 200 µM	17747 + 622 RLU
CCOC(=O)C1=C(c2ccccc2)N=c2sc(=Cc3ccc(-c4ccc(C(=O)O)cc4)o3)c(=O)n2C1c1ccc(F)cc1 (centres unmarked) [H5-35, 2-[5-(4-carboxy-phenyl)-furan-2-ylmethylene]-5-(4-fluoro-phenyl)-3-oxo-7-phenyl-2,3-dihydro-5H-thiazolo[3,2-a]pyrimidine-6-carboxylic acid ethyl ester]	displayed anti-bacterial activities	-1.5%	None of them showed an inhibitory effect	0.27 ± 0.1%	0.17 ± 0.05%	71.7%	41.253 ± 5.31	16.283 ± 4.75	3.13 µM (≈ 1.86 µg/mL)	6.25 µM (≈ 3.72 µg/mL)	> 200 µM	18075 + 285 RLU
